Laboratory results published in patent US10729690B2, “Antihelminthic medications for pathogenic nematodes” (priority 2016, dated 2020).
“Also recorded” adds a separate entry of the source.

What was measured:
[1] = test system: P. aeruginosa; assay: In vitro P. aeruginosa growth assay in the absence of C. elegans; type: cell-based
[2] = test system: C. elegans; assay: C. elegans brood size; type: in vivo; details: absence of pathogen
Excerpt: (§1) In reports describing the anti-infective, immunostimulatory xenobiotic R24 it was noted that this compound was toxic to nematodes growing in the absence of pathogen. Pukkila-Worley et al., (2012). […] FIG. 4A. […] FIG. 4B.

[3] = test system: p38 MAPK PMK-1-dependent antimicrobial immune effectors; details: nanoString codeset of 118 genes; previous study (Pukkila-Worley 2014); cited from earlier work
[4] = test system: F08G5.6::GFP (p38 MAPK PMK-1 pathway-dependent immune effector reporter); assay: F08G5.6::GFP immune transcriptional reporter in C. elegans; type: in vivo
[5] = test system: C. elegans genome (immune and detoxification gene transcription); details: previously observed; not dependent on p38 MAPK PMK-1 pathway; cited from earlier work
[6] = test system: p38 MAPK PMK-1-dependent antimicrobial immune effectors; type: in vivo, C. elegans; details: qRT-PCR
[7] = test system: P. aeruginosa infection of C. elegans; assay: "Slow killing" P. aeruginosa infection (pathogenesis) assay in C. elegans; type: in vivo
[8] = test system: C. elegans genome (immune and detoxification gene transcription); assay: Transcriptome profiles of wild-type nematodes (Affymetrix whole genome genechips); type: in vivo
Protocol: The effects of R24 on C. elegans was further characterized by generating transcriptome profiles of wild-type nematodes following exposure to either 70 μM R24 or the solvent control DMSO using Affymetrix whole genome […] induced a remarkably robust transcriptional response that involved only a small fraction ( 1.3%) of the genes of the C. elegans genome. […] For example, seventy (70) of the two hundred sixty-nine (269) […]. aeruginosa using a previously described gene set. Troemel et al., (2006).

[9] = test system: C. elegans; assay: C. elegans survival in the absence of pathogen; type: in vivo
Excerpt: as §1

[10] = test system: nematodes; assay: Nematode killing by UPR inducers combined with immunostimulatory molecules; type: in vivo
Excerpt: In one embodiment, the present invention contemplates a method comprising administering small molecules having clinical antihelminthic efficacy by inducing an unfolded protein response (UPR) in endoplasmic reticulum. In one embodiment, the unfolded endoplasmic reticulum protein response is mediated by small molecules including, but not limited to, tunicamycin and bortezomib (Velcade®). […] See, FIG. 4C. Although it is not necessary to understand the mechanism of an invention, it is believed that components of the nematode UPR are strongly conserved and thus UPR inducers will have dose-limiting toxicity in mammals.
Nematocidal activity of different combinations of these molecules and known anti-helminthics (e.g. ivermectin and albendazole) can be tested to identify those that have synergistic activity. For example, antihelminthic efficacy of chemical inducers of the UPR (e.g. tunicamycin) can be used.

Row | Compound | growth of P. aeruginosa in an in vitro assay [1] | brood sizes of nematodes exposed from the first larval stage [2] | number of codeset genes whose induction by R24 was dependent on the p38 MAPK PMK-1 [3] [genes] | F08G5.6::GFP expression in nsy-1(ums8) mutant exposed to R24, compared to untreated nsy-1(ums8) animals ([4]; nsy-1(ums8) gain-of-function mutant, 70 μM R24 (FIG. 11B)) | F08G5.6::GFP transgene expression ([4]; uninfected nematodes) | induction of detoxification genes/enzymes (CYPs, GSTs, UDPs) [5] | antimicrobial immune effectors induced by R24 in wild-type that pmk-1(km25) mutants failed to upregulate [6] | ability of R24 to prolong lifespan of C. elegans with mutations in four other p38 MAP kinase pathway components ([7]; p38 MAP kinase pathway mutants, data not shown) | R24-mediated lifespan prolongation of pmk-1(km25) null mutants infected with P. aeruginosa, compared to compound-treated wild-type ([7]; pmk-1(km25) null mutants, P<0.001) | C. elegans survival during P. aeruginosa bacterial infection ([7]; wild-type C. elegans) | number of the 269 R24-induced genes activated during infection with P. aeruginosa ([8]; 70 μM R24, overlap P<2.7×10^−16) [genes] | number of genes induced more than 50-fold ([8]; 70 μM R24 vs DMSO) [genes] | number of genes upregulated three-fold or greater ([8]; 70 μM R24 vs DMSO, P<0.025) [genes] | fraction of the genes of the C. elegans genome involved in the transcriptional response ([8]; 70 μM R24 vs solvent control DMSO, wild-type) [%] | C. elegans survival [9] | killing of nematodes in combination with immunostimulatory molecules [10]
1 | Cc1ccc(Nc2nc(N)c3ccccc3n2)cc1Cl [R24] | lack of effect; also recorded: did not have any effect | dramatically smaller | 13 | markedly increased | strongly induced | robust induction; also recorded: causes the induction | six of ten | dramatically attenuated | Lack of improved survivability; also recorded: significantly decreased | dose-dependent improvement; also recorded: Improved survivability; also recorded: protects | 70 | 125 | 269 | ~1.3 | dose dependent shortening | –
2 | CC(C)C[C@H](NC(=O)[C@H](Cc1ccccc1)NC(=O)c1cnccn1)B(O)O [bortezomib] | – | – | – | – | – | – | – | – | – | – | – | – | – | – | – | act synergistically
3 | tunicamycin | – | – | – | – | – | – | – | – | – | – | – | – | – | – | – | act synergistically
